# Measurements published in publication PMC5607274, “An iterative compound screening contest method for identifying target protein inhibitors using the tyrosine-protein kinase Yes” (Scientific Reports, 2017).
# Biological target: T1, human recombinant Yes [a.a. 2–543 (end)] (Homo sapiens, UniProt P07947)
# T1 construct: human recombinant Yes [a.a; 2–543 (end)]; purchased BPS Bioscience 40488
# Assay: ADP-Glo kinase assay, inhibition rates of Yes phosphorylation activity (first and second screening)
# Assay type: biochemical
# Conditions: first screening; mean of n = 4 wells; 10 μmol L−1 compound
# Protocol: All inhibitory assays of the phosphorylation activity of Yes were performed in accordance with the Promega Technical Manual for the ADP-Glo™ Kinase Assay (Fitchburg, WI, USA. Catalog number: V9102). The human recombinant Yes [a.a. 2–543 (end)] was purchased from BPS Bioscience (catalog number: 40488). The details of the assay protocol and reagent information are given elsewhere.
# The screening was conducted in three steps consisting of the first screening, the second screening, and the IC50 determination, as can be illustrated in Fig. 1b. First, we determined the inhibition rates of the 1,991 compounds. Each compound was placed in 4 wells of a 384-well plate. In total, 80 compounds were assayed on one plate and the other wells were used for positive and negative controls. The compounds were randomly placed on plates so that compounds proposed by one group were not placed on a plate together. A mean of four inhibition rates for each compound was compared to criteria for the first screening. […] Second, the inhibition rates of the screened compounds were determined on one plate using the same procedure of the first screening, where compounds were dissolved from fresh powder. […] Screened compounds were then evaluated for their IC50 values.
# T1 sequence (P07947 2-543): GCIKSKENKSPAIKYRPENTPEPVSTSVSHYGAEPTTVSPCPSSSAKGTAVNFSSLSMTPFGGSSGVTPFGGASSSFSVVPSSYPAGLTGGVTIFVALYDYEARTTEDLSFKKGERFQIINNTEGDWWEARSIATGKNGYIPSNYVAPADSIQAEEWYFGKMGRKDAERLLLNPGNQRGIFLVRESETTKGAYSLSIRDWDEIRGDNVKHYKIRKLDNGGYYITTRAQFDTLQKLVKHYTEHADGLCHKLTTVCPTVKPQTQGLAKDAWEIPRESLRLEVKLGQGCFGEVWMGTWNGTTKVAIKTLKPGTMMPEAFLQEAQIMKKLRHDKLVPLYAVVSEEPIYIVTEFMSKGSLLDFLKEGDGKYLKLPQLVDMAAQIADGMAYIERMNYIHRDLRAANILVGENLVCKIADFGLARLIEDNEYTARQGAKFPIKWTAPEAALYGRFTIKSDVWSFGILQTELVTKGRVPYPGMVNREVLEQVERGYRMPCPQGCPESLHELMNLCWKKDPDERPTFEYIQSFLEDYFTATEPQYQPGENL
row,Compound,First screening IR (inhibition rate)
1,Cc1cc(C)c(NC(=O)CNC(=O)COc2ccccc2C(=O)N2CCCCC2)c(C)c1 [Compound Z25138787],-1%
2,CC(O)CNc1nc2ccccc2n1CC(=O)NCc1cccs1 (stereo not shown) [Compound Z25766910],-11%
3,COc1cc(Cl)c(C)cc1NC(=O)CN(Cc1ccco1)S(=O)(=O)c1cccc(Cl)c1 [Compound Z25969255],38%
4,O=[N+]([O-])c1cc2c(c(CN(Cc3ccccc3)S(=O)(=O)c3cccc(C(F)(F)F)c3)c1)OCOC2 [Compound Z25980301],7%
5,C=CCN(CC(=O)Nc1cccc(C#N)c1)S(=O)(=O)c1ccccc1F [Compound Z26091205],3%
6,Cc1cccc(OCC(=O)Nc2sc3c(c2C(N)=O)CCC3)c1 [Compound Z26345967],18%
7,COc1cc(C(=O)Nc2c(C)cccc2C(C)C)ccc1OCc1c(C)noc1C [Compound Z26400530],1%
8,Cc1ccc(-c2nn(-c3ccc(F)cc3)cc2C(=O)N(C)CC(=O)Nc2ccc(N3CCOCC3)cc2)cc1 [Compound Z26593504],46%
9,Cc1cccc(-c2nn(-c3ccccc3)cc2C(=O)N(C)CC(=O)Nc2ccc(N3CCOCC3)cc2)c1 [Compound Z26593505],2%
10,O=C(CN(Cc1ccccc1)S(=O)(=O)c1ccc(Cl)cc1)N1CCN(c2ccccn2)CC1 [Compound Z26735553],16%
11,NC(=O)Nc1ccc(C(=O)NCCC(c2ccccc2)c2ccccc2)cc1 [Compound Z26815125],-8%
12,Cc1cccc(N2CCN(C(=O)C3CCN(C(=O)C4CC4)CC3)CC2)c1C [Compound Z26849648],-2%
13,CNS(=O)(=O)c1cc(C(=O)N2CCN(Cc3cc(OC)ccc3OC)CC2)ccc1Cl [Compound Z26970092],28%
14,O=C(Cc1cn2ccsc2n1)NCCN1C(=O)S/C(=C/c2cccnc2)C1=O [Compound Z27116942],12%
15,N#Cc1ccccc1S(=O)(=O)N1CCN(C(=O)/C=C/c2ccc3c(c2)OCCCO3)CC1 [Compound Z27234574],36%
16,Cc1cc(OCC(=O)NC(C)c2ccc(-n3ccnc3)cc2)ccc1C(C)C (stereo not shown) [Compound Z27305591],-7%
17,CC(NC(=O)C(NC(=O)c1ccco1)C(C)C)c1ccc(-n2ccnc2)cc1 (stereo not shown) [Compound Z27306758],4%
18,Cc1ccc(C(C)C)c(OCC(=O)NC(C)c2ccc(-n3ccnc3)cc2)c1 (stereo not shown) [Compound Z27307326],11%
19,CCc1ccccc1NC(=O)CNC(=O)c1cc2ccccc2[nH]1 [Compound Z27562098],48%
20,CCOc1ccc(-n2c(O)c3ccc(C(=O)N=C4N=c5ccccc5=N4)cc3c2O)cc1 [Compound Z27664836],-4%
21,COc1ccc2c(c1)c(CC(=O)N1CCN(Cc3ccccc3)CC1)c(C)n2C(=O)c1ccc(Cl)cc1 [Compound Z27764077],10%
22,Cc1ccc(C)c(N2C(=O)c3ccc(C(=O)Nc4ccc(N5CCN(C)CC5)cc4C)cc3C2=O)c1 [Compound Z27972425],8%
23,COc1ccc(CN2C(=O)c3ccccc3C2=O)cc1C(=O)Nc1ccc(N2CCN(C)CC2)cc1C [Compound Z27972767],17%
24,COc1ccc(-c2cc(C(=O)Nc3ccc(N4CCN(C)CC4)cc3C)c3ccccc3n2)cc1OC [Compound Z27974061],3%
25,O=C(Nc1ccc(N2CCOCC2)cc1N1CCOCC1)c1ccc(N2C(=O)CCC2=O)cc1 [Compound Z28028679],-4%
26,Cc1cc(C)c(NC(=O)c2cn3c4c(c(N5CCN(C)CC5)c(F)cc4c2=O)OCC3C)c(C)c1 (stereo not shown) [Compound Z28129480],9%

# Next, values leading:
row,First screening IR (inhibition rate),Compound
1,40%,CC(C)(C)c1ccc(OCc2nnc(SCC(=O)N3CCC(c4ccccc4)=N3)n2N)cc1 [Compound Z24578166]
2,9%,O=C(COc1cccnc1[N+](=O)[O-])Nc1ccc2c(c1)OCCO2 [Compound Z24778709]
3,-13%,Cc1ccc(SCc2nc(N)nc(Nc3ccccc3C)n2)cc1C [Compound Z24835676]
4,17%,COc1ccccc1NC(=O)c1ccc(NC(=O)COc2ccc(-n3cnnn3)cc2)cc1 [Compound Z25181441]
5,4%,CC(Sc1n[nH]c(-c2ccccc2Br)n1)C(=O)Nc1ccc(F)cc1 (stereo not shown) [Compound Z25191222]
6,-4%,Cc1ccc2nc(CSc3n[nH]c(-c4ccccc4)n3)cn2c1 [Compound Z25398010]
7,49%,CC(Sc1n[nH]c(-c2ccccc2)n1)C(=O)c1c[nH]c2ccccc12 (stereo not shown) [Compound Z25398193]
8,1%,COC(=O)c1cc(CSc2n[nH]c(-c3ccccc3)n2)oc1C [Compound Z25398505]
9,13%,O=C(CSc1n[nH]c(-c2ccccc2)n1)N1N=C(c2ccc(Cl)cc2)CC1c1ccco1 (stereo not shown) [Compound Z25399394]
10,-1%,Cc1oc2cc(OCC(=O)N(C)C3CCS(=O)(=O)C3)ccc2c(=O)c1-c1c(F)cccc1Cl (stereo not shown) [Compound Z25645184]
11,-24%,CC(=O)CCc1ccc(OCc2cc(=O)n3cc(C)ccc3n2)cc1 [Compound Z25824142]
12,3%,C=CCN(Cc1nnc(-c2ccc(Cl)cc2)o1)S(=O)(=O)c1ccc(NC(C)=O)cc1 [Compound Z26082391]
13,-6%,Cc1ccc(C)c(S(=O)(=O)N(CC(=O)Nc2ccc(Oc3ccccc3)cc2)Cc2ccc(F)cc2)c1 [Compound Z26125608]
14,35%,COc1ccc(C(N)=O)c(OCc2nc3ccccc3nc2C)c1 [Compound Z26325749]
15,27%,COc1ccc(C(CNC(=O)c2ccc3c(c2)NC(=O)C(C)S3)N(C)C)cc1 (stereo not shown) [Compound Z26596638]
16,21%,O=C(c1cn(Cc2ccccc2)nc1-c1cccnc1)N1CCN(c2ccccn2)CC1 [Compound Z26735071]
17,5%,O=C(NCc1nc2ccccc2[nH]1)c1ccc(OCc2ccccc2)cc1 [Compound Z26780414]
18,-12%,O=C(COc1ccccc1)NCc1nc2ccccc2[nH]1 [Compound Z26782031]
19,4%,O=C(Nc1ccc2[nH]c(=O)[nH]c2c1)c1cc2c(s1)-c1ccccc1CC2 [Compound Z26792816]

row,First screening IR (inhibition rate),Compound
1,21%,CN(CC(=O)Nc1cccc(F)c1)C(=O)c1cc2ccccc2cc1O [Compound Z26987740]
2,20%,O=C(Nc1ccccc1OC(F)F)c1ccc2c(c1)C(=O)N(Cc1ccncc1)C2=O [Compound Z27081729]
3,3%,Cc1cccc(NC(=O)CNC(=O)c2cn3c(C)cccc3n2)c1C [Compound Z27271554]
4,7%,COc1cc(C(=O)NC(C)c2ccc(-n3ccnc3)cc2)cc(Cl)c1OC(C)C (stereo not shown) [Compound Z27306302]
5,8%,O=C(Nc1nc2ccccc2[nH]1)c1ccc(N2CCCC2=O)cc1 [Compound Z27664887]
6,-6%,CC(=O)c1cccc(OCC(=O)Nc2nc3ccccc3[nH]2)c1 [Compound Z27665121]
7,8%,O=C(COc1ccc2ccccc2c1)Nc1nc2ccccc2[nH]1 [Compound Z27666510]
8,3%,Cc1nn(Cc2ccc(F)cc2)c2sc(C(=O)Nc3ccc(N4CCOCC4)cc3N3CCOCC3)cc12 [Compound Z28027525]
9,-1%,Cc1ccc(-n2nc(C)c3c(C(=O)Nc4nc(CN5CCOCC5)cs4)cc(-c4ccccc4)nc32)cc1 [Compound Z28032810]
10,13%,Cc1nc2ccc(NC(=O)c3cc4ccccc4oc3=O)cc2s1 [Compound Z28296849]
11,-5%,CCOc1ccc(CCNC(=O)c2cc3ccccc3[nH]2)cc1OCC [Compound Z28450151]
12,13%,CN1CCC(N(C)S(=O)(=O)c2ccc(NC(=O)Cc3ccc(F)cc3)cc2)CC1 [Compound Z28459327]
13,0%,Cc1c(C(=O)Nc2ccnn2C2CCCC2)oc2c(Cl)cccc12 [Compound Z28468306]
14,-5%,CC(NC(=O)CCc1nc2ccccc2c(=O)[nH]1)c1cccc(C(F)(F)F)c1 (stereo not shown) [Compound Z28541828]
15,-1%,CC(NC(=O)c1ccc2nc[nH]c2c1)c1ccc(F)c(F)c1 (stereo not shown) [Compound Z28547957]
16,3%,O=C(Nc1nnc(SCc2ccc(F)cc2)s1)c1cccnc1Cl [Compound Z28653555]
17,16%,N#Cc1ccc(C(=O)Nc2nc(-c3ccc(F)c(F)c3)cs2)cc1 [Compound Z28714833]
18,2%,CCC(NC(=O)c1cc2c(cc1Cl)N1CCCCCC1=NS2(=O)=O)c1ccc(C)cc1 (stereo not shown) [Compound Z28877665]
19,-2%,O=C(Cc1ccc(F)cc1)N1CCN(S(=O)(=O)Cc2ccccc2)CC1 [Compound Z28905033]
